Data as given in PMC4176481, “Influence of D-glutamine and D-glutamic acid sequences in optical peptide probes targeted against the cholecystokinin-2/gastrin-receptor on binding affinity, specificity and pharmacokinetic properties” (EJNMMI Research, 2013).
Where “and” joins values, the source holds several entries; their conditions need not be identical. Equal values may be shown once. Entries after “also recorded” stand apart in the source; their conditions may differ. Starred links: 1 amine or outer side, 2 acyl side, 3 side chain; linkers in the order of their positions; H or OH if unused. Positions of bridges follow the written chain, without caps; N, C: chain ends. Non-standard residues stand in square brackets, D forms with d. Residues, ends and D or L forms follow the SMILES beside them. Chains are numbered I, II in the order given. *: point of attachment. X1 = CC(C)(C)c1cc(C=CC=CC=C2N(CCCS(=O)(=O)O)c3ccc(S(=O)(=O)O)cc3C2(C)CCCC(=O)*)c2cc3c(cc2[o+]1)N(CCCS(=O)(=O)O)C(C)(C)C=C3CS(=O)(=O)[O-]; Nle = CCCC[C@H](N)C(=O)O; X2 = O=C(C[*:1])[*:2]

Assays:
A431/CCK2R cells = assay: Target binding and internalization in vitro, fluorescence microscopy; type: cell-based, human; conditions: 0.5 μM, 30 min; for binding and internalization in A431/CCK2R cells at 37°C: n = 3
Protocol: (§1) Binding of the optical probes QE and bivQ to CCK2R-expressing (A431/CCK2R) and CCK2R-non-expressing (A431/WT) cells was investigated after incubation with 0.5 μM of each probe in culture medium for 30 min at 4°C to observe active surface receptor binding and at 37°C to check for internalization behaviour, which is mandatory for in vivo signal amplification. Incubation with 0.5 μM of the fluorochrome DY-754 should determine the role of the interaction of the peptide with the CCK2R for probe uptake. Probe incubation was followed by cell membrane staining with wheat germ agglutinin-Alexa Fluor®-555 (WGA-555, Invitrogen, Carlsbad, CA, USA), fixation in 4% (v/v) paraformaldehyde on ice and mounting in PermaFluor® Mounting medium (Thermo Fisher, Waltham, MA, USA), containing 0.2 μg/mL Hoechst 33258 (Applichem, Darmstadt, Germany) to stain cell nuclei. Fluorescence microscopy was carried out with the digital microscope EVOSfl (AMG, Bothell, WA, USA) equipped with three filter cubes for visualization of Hoechst (excitation 335 to 379 nm, emission 417 to 477 nm), WGA-555 (excitation 511 to 551 nm, emission 573 to 613 nm) and DY-754 (excitation 690 to 730 nm, emission 752 to 798 nm).

A431/WT cells = assay: Target binding in vitro, fluorescence microscopy, CCK2R-non-expressing cells; type: cell-based, human; conditions: 0.5 μM, 30 min
Protocol: as §1

A431/CCK2R tumours = assay: In vivo NIRF imaging of CCK2R-expressing xenografts; set-up: species or system athymic nude mice; conditions: for TBR, A431/CCK2R xenografts, under competition / tumour/background ratio (TBR), A431/CCK2R xenografts: 8 h p.i., mean ± SD, n = 5; for TBR, A431/CCK2R xenografts, under competition: co-injection of 10-fold molar excess of non-fluorescent minigastrin; for tumour/background ratio (TBR), A431/CCK2R xenografts: i.v. 108 nmol/kg QE or 54 nmol/kg bivQ; for TBR, CCK2R-expressing xenografts (summary bound): high-contrast imaging, discussion summary
Source text: Female athymic nude mice (Hsd:Athymic Nude-Foxn1^nu nu/nu; Harlan Laboratories, Eystrup, Germany) were housed under standard conditions with water and food ad libitum. Mice were maintained under a low-pheophorbide diet (C 1039; Altromin, Lage, Germany) to reduce tissue autofluorescence. All procedures were approved by the regional animal committee (reg. number 02-007/10) and were in accordance with international guidelines on the ethical use of animals. Animals were anesthetized with 2% isoflurane during all procedures. To implement subcutaneous xenografts, 5 × 10^5 CCK2R transfected (A431/CCK2R) and non-transfected wild-type cells (A431/WT) were dispensed in Matrigel™ (BD Biosciences, Heidelberg, Germany) and injected into the right (A431/CCK2R cells) and left (A431/WT cells) flank of 8- to 12-week-old animals 10 to 15 days before in vivo imaging.
Xenografts were inoculated in athymic nude mice (Hsd:Athymic Nude-Foxn1^nu nu/nu; Harlan Laboratories) 10 to 15 days before imaging by subcutaneous injection of 0.5 million A431/CCK2R […] and A431/WT cells (right flank) dispersed in Matrigel™ (BD Biosciences). For in vivo fluorescence imaging, 108 nmol/kg QE or 54 nmol/kg bivQ probe was injected intravenously (i.v.), according to the results of a dose determination experiment, which was set up to identify the optimal relation between sensitivity and contrast (Additional file 1). […] Another group received 108 nmol/kg of the unconjugated fluorophore DY-754 to determine dye-mediated non-specific tumour uptake, and one group remained untreated to control for probe-unrelated NIR fluorescence in the animals. At defined time points between 0 and 8 h p.i., NIRF fluorescence images (excitation 615 to 665 nm, emission >750 nm) and white light images of the animals were obtained. By means of spectral unmixing, tissue autofluorescence was removed from the images. Subsequently, fluorescence intensities (FI) were analysed over the time in regions of interest (ROIs) that were placed upon the tumours and non-tumour tissue. As a measure of contrast between tumour and non-tumour fluorescence, tumour/background ratios (TBRs) were calculated as a quotient of FItumour/FInon-tumour.

A431/WT tumours = assay: In vivo NIRF imaging of CCK2R-negative xenografts; set-up: species or system athymic nude mice; conditions: 1 to 8 h p.i.; i.v. 108 nmol/kg QE or 54 nmol/kg bivQ; n = 5
Source text: Female athymic nude mice (Hsd:Athymic Nude-Foxn1^nu nu/nu; Harlan Laboratories, Eystrup, Germany) were housed under standard conditions with water and food ad libitum. Mice were maintained under a low-pheophorbide diet (C 1039; Altromin, Lage, Germany) to reduce tissue autofluorescence. All procedures were approved by the regional animal committee (reg. number 02-007/10) and were in accordance with international guidelines on the ethical use of animals. Animals were anesthetized with 2% isoflurane during all procedures. […]
Xenografts were inoculated in athymic nude mice (Hsd:Athymic Nude-Foxn1^nu nu/nu; Harlan Laboratories) 10 to 15 days before imaging by subcutaneous injection of 0.5 million A431/CCK2R (left flank) and A431/WT cells (right flank) dispersed in Matrigel™ (BD Biosciences). For in vivo fluorescence imaging, 108 nmol/kg QE or 54 nmol/kg bivQ probe was injected intravenously (i.v.), according to the results of a dose determination experiment, which was set up to identify the optimal relation between sensitivity and contrast (Additional file 1). […] Another group received 108 nmol/kg of the unconjugated fluorophore DY-754 to determine dye-mediated non-specific tumour uptake, and one group remained untreated to control for probe-unrelated NIR fluorescence in the animals. […]

[1] = Biodistribution, ex vivo NIRF of organs and xenografts 8 h p.i.; type: in vivo, athymic nude mice; conditions: for uptake into A431/WT tumours (biodistribution): n = 5, comparably high for DY-754 (p > 0.05)
Protocol: We investigated the biodistribution of the optical probes and of the fluorochrome DY-754 to determine the influence of the dye on tumour and organ accumulation. Therefore, 8 h p.i., ex vivo NIRF fluorescence images of the organs and the two xenografts (A431/CCK2R and A431/WT) per mouse were taken in combination with the placement of ROIs on these organs to assess semiquantitative fluorescence intensities.

[2] = test system: A431/CCK2R and A431/WT tumours; assay: Ex vivo intratumoural probe distribution in cryosections (Odyssey scanner); set-up: species or system athymic nude mice; conditions: acetone-fixed 30-μm cryosections of explanted xenografts, three specimens/group
Source text: To determine intratumoural distribution of the peptide probes ex vivo, acetone-fixed 30-μm cryosections of explanted xenografts were scanned mesoscopically in the near-infrared scanner Odyssey® (LI-COR, Bad Homburg, Germany) at 700 nm (autofluorescence) and 800 nm (probe fluorescence).

[3] = Metabolic (protease) stability in mouse liver homogenates; type: in vitro ADME; conditions: mouse liver homogenate, incubation up to 180 min, HPLC with UV/VIS detection at 750 nm, three parallels
Protocol: Supplementary file 2191-219X-3-75-S3.pptx: Additional file 3: Metabolic (protease) stability of QE and bivQ against the degradation by mouse liver homogenates. The HPLC peak of non-degraded QE at 9.7 min elution time (a-I) decreased after 180 min of probe incubation in liver homogenate, whereas a second peak, representing degradation products, appeared at 7.2 min of elution (a-II). Degradation curves of (b) QE and (c) bivQ. […] Peaks were detected at 750 nm with a UV/VIS detector. Data represent three parallels. Click here for file
Supplementary file 2191-219X-3-75-S4.pptx: Additional file 4: Metabolic stability of the optical CCK2R targeted minigastrin dQ-MG-754 [[20]]. Degradation of dQ-MG-754 for comparison with QE and bivQ. […] Probe signal was detected at 750 nm with a UV/VIS detector. Data represent three parallels. Click here for file

## CCCC[C@H](NC(=O)[C@H](Cc1c[nH]c2ccccc12)NC(=O)CNC(=O)[C@H](Cc1ccc(O)cc1)NC(=O)[C@H](C)NC(=O)[C@@H](CCC(N)=O)NC(=O)[C@@H](CCC(N)=O)NC(=O)[C@@H](CCC(N)=O)NC(=O)CSC[C@H](NC(=O)CCCC1(C)C(=CC=CC=Cc2cc(C(C)(C)C)[o+]c3cc4c(cc23)C(CS(=O)(=O)[O-])=CC(C)(C)N4CCCS(=O)(=O)O)N(CCCS(=O)(=O)O)c2ccc(S(=O)(=O)O)cc21)C(=O)N[C@H](CCC(N)=O)C(=O)N[C@H](CCC(N)=O)C(=O)N[C@H](CCC(N)=O)C(=O)N[C@@H](C)C(=O)N[C@@H](Cc1ccc(O)cc1)C(=O)NCC(=O)N[C@@H](Cc1c[nH]c2ccccc12)C(=O)N[C@@H](CCCC)C(=O)N[C@@H](CC(=O)O)C(=O)N[C@@H](Cc1ccccc1)C(N)=O)C(=O)N[C@@H](CC(=O)O)C(=O)N[C@@H](Cc1ccccc1)C(N)=O (some centres unmarked) [bivQ] (I: X1-C[dQ][dQ][dQ]AYGW[Nle]DF-NH2 / II: [dQ][dQ][dQ]AYGW[Nle]DF-NH2; linker I:1-II:N via X2)
A431/CCK2R cells
  probe localisation in A431/CCK2R cells at 4°C: restricted to the cell membrane
  binding and internalization in A431/CCK2R cells at 37°C: binding and internalization
A431/WT cells
  binding to A431/WT cells (no CCK2R expression): no binding
A431/CCK2R tumours
  TBR, A431/CCK2R xenografts, under competition: 4.0 ± 1.2
  tumour/background ratio (TBR), A431/CCK2R xenografts: 6.3 ± 1.4
  TBR, CCK2R-expressing xenografts (summary bound): > 6
A431/WT tumours
  TBR, A431/WT tumours: < 2
[1]; n = 5
  fluorescence accumulation in stomach, small intestine and colon: no fluorescence accumulation
[1]
  uptake into A431/WT tumours (biodistribution): weak uptake
[2]
  intratumoural fluorescence at 800 nm in tumour sections: only in the outer A431/CCK2R tumour regions
[3]
  metabolic stability against degradation by liver proteases: only a limited metabolic stability

## CSCC[C@H](NC(=O)[C@H](Cc1c[nH]c2ccccc12)NC(=O)CNC(=O)[C@H](Cc1ccc(O)cc1)NC(=O)[C@H](C)NC(=O)[C@@H](CCC(=O)O)NC(=O)[C@@H](CCC(N)=O)NC(=O)[C@@H](CCC(=O)O)NC(=O)[C@@H](CCC(N)=O)NC(=O)[C@@H](CCC(=O)O)NC(=O)[C@@H](CCC(N)=O)NC(=O)CCCC1(C)C(=CC=CC=Cc2cc(C(C)(C)C)[o+]c3cc4c(cc23)C(CS(=O)(=O)[O-])=CC(C)(C)N4CCCS(=O)(=O)O)N(CCCS(=O)(=O)O)c2ccc(S(=O)(=O)O)cc21)C(=O)N[C@@H](CC(=O)O)C(=O)N[C@@H](Cc1ccccc1)C(N)=O (some centres unmarked) [QE] (X1-[dQ][dE][dQ][dE][dQ][dE]AYGWMDF-NH2)
A431/CCK2R cells
  probe localisation in A431/CCK2R cells at 4°C: restricted to the cell membrane
  binding and internalization in A431/CCK2R cells at 37°C: binding and internalization
A431/WT cells
  binding to A431/WT cells (no CCK2R expression): no binding
A431/CCK2R tumours
  TBR, A431/CCK2R xenografts, under competition: 4.4 ± 0.9
  tumour/background ratio (TBR), A431/CCK2R xenografts: 6.2 ± 1.0
  TBR, CCK2R-expressing xenografts (summary bound): > 6
A431/WT tumours
  TBR, A431/WT tumours: ~2 and < 2
[1]; n = 5
  fluorescence accumulation in stomach, small intestine and colon: no fluorescence accumulation
  uptake in the liver compared to free DY-754: weakly elevated uptake
[1]
  uptake into A431/WT tumours (biodistribution): weak uptake
[2]
  intratumoural fluorescence at 800 nm in tumour sections: only in the outer A431/CCK2R tumour regions
[3]
  metabolic stability against degradation by liver proteases: more stable than bivQ; also recorded: highly stable
